Earlier results, collected in patent publication US9597338B2, “Shell-and-core dosage form approaching zero-order drug release” (Depomed, Inc., priority 2000, dated 2017).

Conditions: oral; doses administered with or following a meal

Cc1c(O)cccc1C(=O)N[C@@H](CSc1ccccc1)[C@H](O)CN1C[C@H]2CCCC[C@H]2C[C@H]1C(=O)NC(C)(C)C [nelfinavir]
Area under the plasma concentration-time curve with or following a meal: two to three times greater | Peak plasma concentration with or following a meal: two to three times greater
